One block for each molecule: values may come before it. Starred links: 1 amine or outer side, 2 acyl side, 3 side chain; linkers in the order of their positions; H or OH if unused. Non-standard residues stand in square brackets, D forms with d. Residues, ends and D or L forms follow the SMILES beside them. Groups on a side chain read outwards from the residue. *: point of attachment. PEG12 = NCCOCCOCCOCCOCCOCCOCCOCCOCCOCCOCCOCCOCCC(=O)O; γGlu = O=C(O)[C@H](CCC(=O)[*:2])N[*:1]; PEG6 = NCCOCCOCCOCCOCCOCCOCCC(=O)O; Palmitoyl = CCCCCCCCCCCCCCCC(=O)*
Experiments:
[1] = In vitro serum stability assay; format: in vitro ADME, human; conditions: 37 °C
Method: 3.7. In Vitro Serum Stability Assay
A total of 400 µL of human serum was taken, and 200 µg peptide dissolved in 100 µL of water was added to human serum at 37 °C. A total of 80 µL of samples was removed at various time points (0 min, 30 min, 60 min, 120 min, 240 min, and 480 min), and 160 µL of acetonitrile was added to precipitate plasma proteins. The solution was then centrifuged at 12,000 rpm for 15 min at 4 °C. A total of 200 µL of supernatant was taken out and mixed with 240 µL of milli-Q water, and each sample was analyzed by RP-HPLC (2 × 80 μL injection), by measuring the area under the peak at the appropriate retention time compared to the peak area of the peptide at time zero minute (100%). Data analysis (n = 3, duplicate) was performed using Prism Version 8.0.2, a non-linear-fit one-phase decay model.

[2] = system: BJ3 human dermal myofibroblasts; test: Myofibroblast differentiation in vitro (α-SMA expression, Western blot); format: cell-based
Method: 3.8. Determination of the Effects of Lipidated (L)-B7-33 on Myofibroblast Differentiation In Vitro
To determine if the lipidation of B7-33 prolonged its ability to suppress myofibroblast differentiation in vitro, the effects of the native B7-33 peptide vs. lipidated (L)-B7-33 were compared in BJ3 cells, a human dermal fibroblast cell line. BJ3 fibroblasts were used between passages 15–18 and cultured as described before. […] BJ3 cells were plated in 12-well plates at a density of 1–1.25 × 10^5 cells per well and were then either left untreated or stimulated with transforming growth factor (TGF)-β1 (T; 2 ng/mL) alone (to promote myofibroblast differentiation) or with T + B7-33 (100 ng/mL) or T + L-B7-33 (100 ng/mL) for a 14-day period, in media that was left unchanged over this time period. The cells from duplicate wells per treatment group were isolated from plates at 3-, 5-, 7-, 10- and 14-days post-T ± peptide treatment and extracted for protein using the RIPA lysis buffer (ThermoFisher Scientific; Scoresby, Victoria, Australia). These experiments were performed six independent times.
Half the cell protein (in 10 μL of RIPA buffer) from each sample (that was fully reconstituted in 20 μL of RIPA buffer) was loaded and electrophoresed in separate mini-protean 4–15% precast gels, and analyzed by Western blotting using a primary monoclonal antibody to α-SMA (42 kDa; M0851; […]; Agilent Technologies, Santa Clara, CA, USA). The equivalent loading of protein between samples was confirmed using a rabbit monoclonal glyceraldehyde 3-phosphate dehydrogenase (GAPDH) housekeeping antibody (37 kDa; 2118; 1:1000 dilution; Cell Signaling Technology; Danvers, MA, USA). Each membrane was then subjected to appropriate anti-mouse (7076) or anti-rabbit (7074) horseradish peroxidase-conjugated secondary antibodies (both at a 1:2000 dilution; Cell Signaling Technologies), before proteins were detected using the Clarity Western ECL substrate detection kit and quantified by densitometry with a ChemiDoc MP Imaging System and Image Lab v.6.0 software (both from Bio-Rad Laboratories, Hercules, CA, USA).The density of α-SMA from each sample was corrected for GAPDH protein levels and then expressed relative to the ratio that was measured from the unstimulated control group, which was expressed as 1 in each case. Representative blots of α-SMA and GAPDH were also chosen for presentation in each case.

[3] = target: T1, 7BP protein (RXFP1 extracellular domain attached with a single TM domain) (Homo sapiens, UniProt Q9HBX9); test: Eu-H2 relaxin competition binding in HEK-7BP cells, BSA free; conditions: HEK-293T cells stably expressing 7BP, BSA excluded from buffer, mean ± SEM, n in brackets, one-site fit, read-out: HEK-7BP Binding B.S.A. Free Eu-H2 pKi (n) (converted)
T1 construct: RXFP1 extracellular domain attached with a single TM domain instead of the native 7 TM domain; single transmembrane domain replacing the native 7 TM domain (heterologous); expressed in transfected cells; host or cells: HEK-293T cells stably expressing 7BP (HEK-7BP)
T1 sequence (Q9HBX9 1-409 limits assumed): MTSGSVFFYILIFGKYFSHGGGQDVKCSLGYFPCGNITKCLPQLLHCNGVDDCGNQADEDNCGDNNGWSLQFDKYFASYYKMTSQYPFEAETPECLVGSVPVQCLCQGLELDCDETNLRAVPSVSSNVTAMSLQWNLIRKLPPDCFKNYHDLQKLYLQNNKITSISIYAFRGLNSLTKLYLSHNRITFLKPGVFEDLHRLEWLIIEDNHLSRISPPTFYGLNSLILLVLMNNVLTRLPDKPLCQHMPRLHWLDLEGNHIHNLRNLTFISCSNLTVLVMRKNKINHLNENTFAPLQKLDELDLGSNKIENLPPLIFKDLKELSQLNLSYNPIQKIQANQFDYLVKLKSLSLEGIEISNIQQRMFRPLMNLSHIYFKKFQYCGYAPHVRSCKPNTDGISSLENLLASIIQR
Method: 3.6. HEK-7BP Binding Assays
HEK-293T cells stably expressing the 7BP protein (HEK-7BP; RXFP1 extracellular domain attached with a single TM domain instead of the native 7 TM domain [30]) were plated in 96-well plates. The medium was aspirated off, and the cells were washed with phosphate-buffered saline (PBS) before competition binding assays were performed with Eu-H2 Relaxin (RXFP1 ligand), as previously described, with the only difference being that BSA was excluded from the binding assay buffer. Competition binding curves for each peptide were performed in triplicate, and each experiment was performed independently at least three times. Fluorescent measurements were carried out on a BMG POLARstar plate reader (BMG Labtech, Melbourne, Australia). Pooled data are presented as mean ± SE of specific binding and are fitted using a one-site binding curve in GraphPad Prism version 8 (GraphPad Inc., San Diego, CA, USA). Statistical analyses were conducted using a one-way analysis of variance with uncorrected Fisher’s least significant difference (LSD) post-hoc analysis in GraphPad Prism version 8.

Ki [3]: > 10 µM
SMILES: CCCCCCCCCCCCCCCC(=O)NCCCC[C@H](NC(=O)[C@H](CCC(=O)O)NC(=O)[C@H](Cc1ccc(O)cc1)NC(=O)[C@@H](N)CCC(=O)O)C(=O)N[C@@H](CCC(=O)O)C(=O)N[C@@H](Cc1ccc(O)cc1)C(=O)N[C@@H](CCC(=O)O)C(=O)N[C@H](C(=O)N[C@H](C(=O)N[C@@H](CCCCN)C(=O)N[C@@H](CC(C)C)C(=O)N[C@@H](CO)C(=O)NCC(=O)N[C@@H](CCCNC(=N)N)C(=O)N[C@@H](CCC(=O)O)C(=O)N[C@@H](CC(C)C)C(=O)N[C@H](C(=O)N[C@@H](CCCNC(=N)N)C(=O)N[C@@H](C)C(=O)N[C@@H](CCC(N)=O)C(=O)N[C@H](C(=O)N[C@@H](C)C(=O)N[C@H](C(=O)N[C@@H](CO)C(=O)NCC(=O)N[C@@H](CCSC)C(=O)N[C@@H](CO)C(=O)N[C@H](C(=O)N[C@@H](Cc1c[nH]c2ccccc12)C(=O)N[C@@H](CO)C(=O)N[C@@H](CCCCN)C(=O)N[C@@H](CCCNC(=N)N)C(=O)N[C@@H](CO)C(=O)N[C@@H](CC(C)C)C(N)=O)[C@@H](C)O)[C@@H](C)CC)[C@@H](C)CC)C(C)C)[C@@H](C)CC)C(C)C [Tag-B7-33] (H-EYEK(Palmitoyl)EYEVIKLSGRELVRAQIAISGMSTWSKRSL-NH2)

Ki [3]: > 10 µM
SMILES: CCCCCCCCCCCCCCCC(=O)NCCCC[C@H](NC(=O)[C@H](CCC(=O)O)NC(=O)[C@H](Cc1ccc(O)cc1)NC(=O)[C@@H](N)CCC(=O)O)C(=O)N[C@@H](CCC(=O)O)C(=O)N[C@@H](Cc1ccc(O)cc1)C(=O)N[C@@H](CCC(=O)O)C(=O)NCCOCCOCCOCCOCCC(=O)N[C@H](C(=O)N[C@H](C(=O)N[C@@H](CCCCN)C(=O)N[C@@H](CC(C)C)C(=O)N[C@@H](CO)C(=O)NCC(=O)N[C@@H](CCCNC(=N)N)C(=O)N[C@@H](CCC(=O)O)C(=O)N[C@@H](CC(C)C)C(=O)N[C@H](C(=O)N[C@@H](CCCNC(=N)N)C(=O)N[C@@H](C)C(=O)N[C@@H](CCC(N)=O)C(=O)N[C@H](C(=O)N[C@@H](C)C(=O)N[C@H](C(=O)N[C@@H](CO)C(=O)NCC(=O)N[C@@H](CCSC)C(=O)N[C@@H](CO)C(=O)N[C@H](C(=O)N[C@@H](Cc1c[nH]c2ccccc12)C(=O)N[C@@H](CO)C(=O)N[C@@H](CCCCN)C(=O)N[C@@H](CCCNC(=N)N)C(=O)N[C@@H](CO)C(=O)N[C@@H](CC(C)C)C(N)=O)[C@@H](C)O)[C@@H](C)CC)[C@@H](C)CC)C(C)C)[C@@H](C)CC)C(C)C [Tag-PEG4-B7-33]

Further lines, the molecule ahead of its results:

SMILES: CCCCCCCCCCCCCCCC(=O)N[C@@H](CCC(=O)NCCCC[C@H](NC(C)=O)C(=O)NCCOCCOCCOCCOCCOCCOCCOCCOCCOCCOCCOCCOCCC(=O)N[C@H](C(=O)N[C@H](C(=O)N[C@@H](CCCCN)C(=O)N[C@@H](CC(C)C)C(=O)N[C@@H](CO)C(=O)NCC(=O)N[C@@H](CCCNC(=N)N)C(=O)N[C@@H](CCC(=O)O)C(=O)N[C@@H](CC(C)C)C(=O)N[C@H](C(=O)N[C@@H](CCCNC(=N)N)C(=O)N[C@@H](C)C(=O)N[C@@H](CCC(N)=O)C(=O)N[C@H](C(=O)N[C@@H](C)C(=O)N[C@H](C(=O)N[C@@H](CO)C(=O)NCC(=O)N[C@@H](CCSC)C(=O)N[C@@H](CO)C(=O)N[C@H](C(=O)N[C@@H](Cc1c[nH]c2ccccc12)C(=O)N[C@@H](CO)C(=O)N[C@@H](CCCCN)C(=O)N[C@@H](CCCNC(=N)N)C(=O)N[C@@H](CO)C(=O)N[C@@H](CC(C)C)C(N)=O)[C@@H](C)O)[C@@H](C)CC)[C@@H](C)CC)C(C)C)[C@@H](C)CC)C(C)C)C(=O)O [Ac K(PalmGlu)-PEG12-B7-33] (Ac-K([γGlu-Palmitoyl])[PEG12]VIKLSGRELVRAQIAISGMSTWSKRSL-NH2)
half-life at 400 µg/mL ([1]; human serum 400 µL + 200 µg peptide in 100 µL water, samples 0-480 min, acetonitrile precipitation, RP-HPLC peak area vs time zero, one-phase decay fit, n = 3, duplicate): 1 h
in vitro serum stability, in words ([1]; human serum, RP-HPLC, n = 3 independent experiments): stable in serum over time
α-SMA expression levels versus T-alone-stimulated cells, in words ([2]; peptide 100 ng/mL + T 2 ng/mL, after 7–14 days of culture): fully returned to those measured for T-alone-stimulated cells
α-SMA expression level relative to T-alone-stimulated cells ([2]; peptide 100 ng/mL + T 2 ng/mL, after 5 days, media unchanged, 0.5% FCS): ~ 70%
suppression of TGF-α-induced increase in α-SMA expression ([2]; peptide 100 ng/mL co-administered with T (2 ng/mL), after 72 h of culture, 0.5% FCS, n = 6 in duplicate): almost fully suppressed

SMILES: CCCCCCCCCCCCCCCC(=O)NCCCC[C@H](NC(=O)[C@@H](NC(=O)[C@@H](N)C(C)C)[C@@H](C)CC)C(=O)N[C@@H](CC(C)C)C(=O)N[C@@H](CO)C(=O)NCC(=O)N[C@@H](CCCNC(=N)N)C(=O)N[C@@H](CCC(=O)O)C(=O)N[C@@H](CC(C)C)C(=O)N[C@H](C(=O)N[C@@H](CCCNC(=N)N)C(=O)N[C@@H](C)C(=O)N[C@@H](CCC(N)=O)C(=O)N[C@H](C(=O)N[C@@H](C)C(=O)N[C@H](C(=O)N[C@@H](CO)C(=O)NCC(=O)N[C@@H](CCSC)C(=O)N[C@@H](CO)C(=O)N[C@H](C(=O)N[C@@H](Cc1c[nH]c2ccccc12)C(=O)N[C@@H](CO)C(=O)N[C@@H](CCCCN)C(=O)N[C@@H](CCCNC(=N)N)C(=O)N[C@@H](CO)C(=O)N[C@@H](CC(C)C)C(N)=O)[C@@H](C)O)[C@@H](C)CC)[C@@H](C)CC)C(C)C [B7-33_9K(Palm)] (H-VIK(Palmitoyl)LSGRELVRAQIAISGMSTWSKRSL-NH2; N-terminus assumed)
Ki [3]: > 10 µM

SMILES: CCCCCCCCCCCCCCCC(=O)NCCOCCOCCOCCOCCOCCOCCC(=O)N[C@H](C(=O)N[C@H](C(=O)N[C@@H](CCCCN)C(=O)N[C@@H](CC(C)C)C(=O)N[C@@H](CO)C(=O)NCC(=O)N[C@@H](CCCNC(=N)N)C(=O)N[C@@H](CCC(=O)O)C(=O)N[C@@H](CC(C)C)C(=O)N[C@H](C(=O)N[C@@H](CCCNC(=N)N)C(=O)N[C@@H](C)C(=O)N[C@@H](CCC(N)=O)C(=O)N[C@H](C(=O)N[C@@H](C)C(=O)N[C@H](C(=O)N[C@@H](CO)C(=O)NCC(=O)N[C@@H](CCSC)C(=O)N[C@@H](CO)C(=O)N[C@H](C(=O)N[C@@H](Cc1c[nH]c2ccccc12)C(=O)N[C@@H](CO)C(=O)N[C@@H](CCCCN)C(=O)N[C@@H](CCCNC(=N)N)C(=O)N[C@@H](CO)C(=O)N[C@@H](CC(C)C)C(N)=O)[C@@H](C)O)[C@@H](C)CC)[C@@H](C)CC)C(C)C)[C@@H](C)CC)C(C)C [Palmitic acid-PEG6-B7-33] ({Palmitoyl-PEG6}-VIKLSGRELVRAQIAISGMSTWSKRSL-NH2)
Ki [3]: > 10 µM
